This note sets out measurements from patent publication US20250263370A1 (Tay Therapeutics Limited, priority 2022, published 2025).

Data set [1] in a line: Sprague-Dawley rat pharmacokinetics, IV and PO cassette dosing. It counts as in vivo. The following applies: for PO F: PO 5 mg/kg; for PO F / IV T1/2: Method 1; for half-life: male, Sprague-Dawley, rat, plasma, iv, 1 mg/kg, Method 1, read-out: IV T1/2 (converted); for half-life / IV T1/2: IV 1 mg/kg. Summed up: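 Male Sprague-Dawley rats (2 per arm) given up to 5 compounds in cassette, 1 mg/kg IV and 5 mg/kg PO, formulated in 5% DMSO/40% PEG-400/55% water. Plasma from serial blood samples was acetonitrile-precipitated and analysed by LC/MS/MS against matrix-matched standard curves.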

Data set [2] can be described thus: Intrinsic clearance in liver microsomes, rat. It counts as in vitro ADME. The following applies: Method 1; for half-life at 1 μM: rat, liver microsomes, pH 7.4, rat liver microsomes, read-out: Half-Life (T1/2) (min), Rat; for Half-Life (T1/2) (min), Rat: rat liver microsomes. Summed up: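 Compound at 1 μM (0.1–1% DMSO) incubated at 37 °C with mouse or rat liver microsomes (0.5 mg/mL protein) and 1 mM NADPH in PBS pH 7.4; samples taken up to 60 min and quenched in cold acetonitrile. LC-MS/MS of percent remaining gave half-life and CLint; no-NADPH controls run.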
A general note: Liver microsomes are a subcellular fraction often used to study metabolism.

The next data set deals with BRD4 BD1 (Homo sapiens (Human), UniProt O60885). Kind of data set: NanoBRET bromodomain assay, NanoLuc-BRD4-BD1 fusion in HEK293 cells. Type of data set: cell-based. As to conditions: top concentration 10 μM.
The next data set has as its target BRD4 BD2 (Homo sapiens (Human), UniProt O60885). Put plainly: NanoBRET bromodomain assay, NanoLuc-BRD4-BD2 fusion in HEK293 cells.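 For all read-outs here: tracer displacement BRET read in transfected cells after 2 h compound exposure at 37 °C, signal in milliBRET units corrected against no-tracer background wells.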 The following applies: for IC50: BRD4 BD2 (IC50), NanoBRET, HEK293 cells, top concentration 10 μM; for Fold selectivity: IC50 for BRD4 BD1 divided by IC50 for BRD4 BD2, qualitative if an IC50 is at the upper limit. (Bioluminescence resonance energy transfer reports proximity on the nanometre scale.)

Data set [3] can be described thus: Thermodynamic solubility in FaSSIF pH 6.5 buffer. It counts as physicochemical. The following applies: for solubility thermodynamic at 24 h / solubility thermodynamic: FaSSIF buffer, 25 °C, pH 6.5, fassif, thermodynamic from solid; for solubility thermodynamic at 24 h / Thermodynamic Solubility FaSSIF pH 6.5 (μM): Method 1 (UV-vis, 25° C., 24 hrs); for solubility thermodynamic: Method 2 (LCMS, 25° C.). As to the method: FaSSIF v2 buffer is freshly prepared prior to use according to the suppliers' instructions and the pH adjusted to 6.5 using 1 M NaOH or 1 M HCl as required. From 1 mM working solution of test compound in DMSO, the λmax of the test compound is determined by scanning from 200 nm to 700 nm, in 1 nm steps with an EPOCH UV/Visible spectrophotometer (Biotek Instruments Inc.). A 12-point standard curve of compound concentration versus absorption at λmax is generated via two-fold serial dilutions of the 1 mM working solution with DMSO. Approximately 1 mg of test compound is accurately weighed into an Eppendorf tube and the appropriate volume of FaSSIF buffer is added to make a nominal concentration of 1 mg/mL. The tube is incubated on a rotator at 20 rpm, 25° C. for 24 hrs. Samples are then filtered using 0.45 μm filters (Sartorious, CAT #1776C) and the filtrate subjected to UV-vis spectroscopy analysis. The absorption at λmax is compared to the standard curve to determine the concentration of compound in solution after 24 hours.
FaSSIF buffer was prepared according to the suppliers' instructions and the pH adjusted to 6.5 using 1 M NaOH or 1 M HCl as required. […] A stir stick was added to each vial and vials sealed with a moulded PTDE/SIL 96-well plate cover. The plate was shaken at 25° C. at 1,100 rpm using an Eppendorf Thermomixer Comfort plate shaker. The plates were filtered using a vacuum manifold and diluted with a mixture of H2O and acetonitrile containing internal standard. The concentration of the test compound in the filtrate was determined by LCMS analysis with reference to the internal standards to determine the solubility in the buffer.

Data set [4] can be described thus: Plasma stability assay, rat plasma. Type of data set: in vitro ADME. As to conditions: Method 2 (10 μM). The method, boiled down:
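Compound at 5 μM final (0.5% DMSO) in one protocol or 10 μM (2% DMSO) in the other, incubated in plasma at 37° C.; samples taken 0–120 min and quenched with cold acetonitrile plus internal standard. LC-MS/MS gives percent remaining relative to the 0-min sample.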

Structures are written as SMILES. In brackets after ≈: the same amount, converted by molar mass.

Method for BRD4 BD2: HEK293 cells were transfected using NanoLuc-BRD4-BD1 or NanoLuc-BRD4-BD2 fusion vectors and incubated at 37° C. in an atmosphere of 5% CO2 for 20-24 hours. The transfected cells were then dispensed into 96-well plates using 90 μl cell suspension per well containing 2×10^5 cells/mL in Opti-MEM and 1× final concentration of tracer. 90 μL per well of cell suspension without tracer was also dispensed into at least 3 wells as “No tracer control samples” for background correction. Serially diluted test compounds were prepared at 1000× concentration in DMSO and further diluted to 10× concentration in Opti-MEM. […] Plates were then incubated at 37° C. +5% 002 incubator for 2 hours. […] Donor emission (450 nm) and acceptor emission (610 nm) were measured using PHERAstar (BMG LabTech). For data analysis, the raw BRET ratio was generated and converted to milliBRET units with background correction using the formula: [(Acceptorsample/Donorsample−(Acceptorno tracer control/Donorno tracer control)]×1000. The mBU data was plotted as a function of compound concentration and IC50s for BRET assay were determined by nonlinear regression analysis of concentration response curves using the Collaborative Drug Discovery Vault software. The fold-selectivity was calculated by dividing the IC50 for BRD4 BD1 by the IC50 for BRD4 BD2.

For orientation: IC50 means the concentration needed to halve the response being measured. A higher IC50 goes with a need for much substance. As a reminder, the solubility (thermodynamic) is solubility found after equilibrating the solid with the medium. For `CNC(=O)c1[nH]c(C(=O)NC2CCC2)cc1OC(C)c1ccccc1` (single isomer, unassigned) [Example 102, N^5-cyclobutyl-N^2-methyl-3-(1-phenylethoxy)-1H-pyrrole-2,5-dicarboxamide], in data set [1], the “PO F” value stood at 13% and the half-life is 162 min. Further, the half-life at 1 μM in data set [2] turned out to be 41 min. Moreover, the IC50 against BRD4 BD1 was ≥ 10 µM. On BRD4 BD2, the IC50 is > 10000 nM; the Fold selectivity entry is “— (Fold ≥0 and ≤2)”. The same compound yielded a solubility (thermodynamic) at 24 h in data set [3] of 188 µM (≈ 64.2 µg/mL).
In the case of `CNC(=O)c1[nH]c(C(=O)N[C@H]2CC[C@H](OC)CC2)cc1OC(C)c1ccccc1` (single isomer, unassigned) [Example 99, N^5-(trans-4-methoxycyclohexyl)-N^2-methyl-3-(1-phenylethoxy)-1H-pyrrole-2,5-dicarboxamide], the “Half-Life (T1/2) (min), Rat” value in data set [2] is listed as 39 min. For the same compound, at BRD4 BD1, the IC50 is ≥ 10 µM. For the same compound, at BRD4 BD2, the IC50 was in the range of 50 to 200 nM; the Fold selectivity entry is “XX (Fold >50 and ≤200)”. Also, the thermodynamic solubility at 24 h in data set [3] was determined as 359 µM (≈ 143 µg/mL).
Regarding `CNC(=O)c1[nH]c(C(=O)NC2CCC(F)(F)CC2)cc1OC(C)c1ccccc1` (single isomer, unassigned) [Example 104, N^5-(4,4-difluorocyclohexyl)-N^2-methyl-3-(1-phenylethoxy)-1H-pyrrole-2,5-dicarboxamide], the “Half-Life (T1/2) (min), Rat” value in data set [2] is 10 min. For the same compound, the IC50 on BRD4 BD1 is ≥ 10 µM. Also, on BRD4 BD2, the concentration for half-maximal inhibition (IC50) is > 10000 nM; the Fold selectivity entry is “— (Fold ≥0 and ≤2)”. Also, the “Thermodynamic Solubility FaSSIF pH 6.5 (μM)” value in data set [3] is reported as 47 μM.
`CNC(=O)c1[nH]c(C(=O)NC2CCC2)cc1OC(C)c1ccc(Cl)cn1` (single isomer, unassigned) [Example 33, 3-(1-(5-chloropyridin-2-yl)ethoxy)-N^5-cyclobutyl-N^2-methyl-1H-pyrrole-2,5-dicarboxamide]: the half-life at 1 μM in data set [2] is > 60 min. Besides, on BRD4 BD1, the IC50 was ≥ 10 µM. Further, in data set [4], the “Plasma Stability (% remaining at 120 minutes), Rat” value turned out to be 85%. In addition, at BRD4 BD2, the IC50 lay in the range of 50 to 200 nM; the Fold selectivity result was “XX (Fold >50 and ≤200)”. The compound further came in with a thermodynamic solubility in data set [3] of 685 µM (≈ 258 µg/mL).
In the case of `CNC(=O)c1[nH]c(C(=O)NC2CC2)cc1O[C@@H](C)c1ccccc1F` [Example 59, (S)—N^5-cyclopropyl-3-(1-(2-fluorophenyl)ethoxy)-N^2-methyl-1H-pyrrole-2,5-dicarboxamide], in data set [1], the “IV T1/2” value worked out at 1.1 h and the “PO F” value stood at 70%. In data set [2], the half-life at 1 μM is > 60 min. Further, at BRD4 BD1, the IC50 was ≥ 10 µM. In addition, the “Plasma Stability (% remaining at 120 minutes), Rat” value in data set [4] stood at 50%. At BRD4 BD2, the IC50 was in the range of 50 to 200 nM; the Fold selectivity result was “XX (Fold >50 and ≤200)”. The thermodynamic solubility in data set [3] was determined as 635 µM (≈ 219 µg/mL).
As for `CNC(=O)c1[nH]c(C(=O)NC2CC2)cc1O[C@@H](C)c1ccc(Cl)cc1` [Example 62, (S)-3-(1-(4-chlorophenyl)ethoxy)-N^5-cyclopropyl-N^2-methyl-1H-pyrrole-2,5-dicarboxamide], in data set [1], the “PO F” value came out at 8% and the half-life is 30 min. In addition, the half-life at 1 μM in data set [2] is > 60 min. Moreover, at BRD4 BD1, the IC50 is ≥ 10 µM. For the same compound, in data set [4], the “Plasma Stability (% remaining at 120 minutes), Rat” value came to 82%. Further, at BRD4 BD2, the IC50 was < 50 nM and the Fold selectivity entry is on record as “XXX (Fold >200)”. Besides, the solubility (thermodynamic) in data set [3] came to 320 µM (≈ 116 µg/mL).
Turning to `CNC(=O)c1[nH]c(C(=O)NC2CCC(F)(F)CC2)cc1OC(C)c1ccccc1` (single isomer, unassigned) [Example 103, N^5-(4,4-difluorocyclohexyl)-N^2-methyl-3-(1-phenylethoxy)-1H-pyrrole-2,5-dicarboxamide], the half-life at 1 μM in data set [2] worked out at 19 min. In addition, the IC50 at BRD4 BD1 is ≥ 10 µM. In addition, on BRD4 BD2, the IC50 was in the range of 50 to 200 nM; the Fold selectivity entry was “XX (Fold >50 and ≤200)”. Also, in data set [3], the thermodynamic solubility at 24 h is 57 µM (≈ 23.1 µg/mL).
Regarding `C#Cc1ccc(C(C)Oc2cc(C(=O)NCC)[nH]c2C(=O)NC)cc1` (single isomer, unassigned) [Example 70, N^5-ethyl-3-(1-(4-ethynylphenyl)ethoxy)-N^2-methyl-1H-pyrrole-2,5-dicarboxamide], in data set [1], the “PO F” value is listed as 44% and the half-life is 36 min. In addition, the half-life at 1 μM in data set [2] is 60 min. Further, on BRD4 BD1, the IC50 was ≥ 10 µM. The “Plasma Stability (% remaining at 120 minutes), Rat” value in data set [4] stood at 92%. In addition, at BRD4 BD2, the IC50 is < 50 nM and the Fold selectivity entry is “XXX (Fold >200)”. For the same compound, the thermodynamic solubility in data set [3] is 365 µM (≈ 124 µg/mL).
With `CNC(=O)c1[nH]c(C(=O)N[C@H]2CC[C@H](O)CC2)cc1OC(C)c1ccccc1` (single isomer, unassigned) [Example 98, N^5-(trans-4-hydroxycyclohexyl)-N^2-methyl-3-(1-phenylethoxy)-1H-pyrrole-2,5-dicarboxamide], in data set [1], the “IV T1/2” value was 1.2 h and the “PO F” value came out at 31%. In addition, the “Half-Life (T1/2) (min), Rat” value in data set [2] is recorded as >60 min. In addition, the IC50 against BRD4 BD1 is ≥ 10 µM. Besides, at BRD4 BD2, the IC50 is > 10000 nM; the Fold selectivity result is “— (Fold ≥0 and ≤2)”. Also, in data set [3], the “Thermodynamic Solubility FaSSIF pH 6.5 (μM)” value was 429 μM.
